# Measurements from patent publication US9364479B2, “Use of a receptor-type kinase modulator for treating polycystic kidney disease” (SYMPHONY EVOLUTION, INC., priority 2010, dated 2016).
# Marks after values point to notes of the source that are not given here.
# Assays:
# H1975 xenografts = test: Immunohistochemical analysis of H1975 xenografts (TUNEL, CD31, Ki67); type: in vivo, mouse; conditions: 14-day dosing
# Description: For immunohistochemical analysis of H1975, MDA-MB-231 and other xenografts, tumors were excised after euthanasia and fixed in zinc fixative (BD Biosciences) for 48 h before being processed into paraffin blocks. Serial sections at 5 μm were obtained from the area of largest possible surface for each tumor and stained using standard methods. The following antibodies were used: Ki67 (SP6; Labvision), CD31 (MECA.32; BD Biosciences), pERK^Thr202/Tyr204 (phospho-p44/42 mitogen-activated protein kinase; Cell Signaling Technology), pAKT^Ser473 (Cell Signaling Technology), and pEGFR^Tyr1068 (Cell Signaling Technology). For immunofluorescent staining, sections were then incubated with Alexa 594-conjugated goat anti-rabbit secondary antibody (Invitrogen) and mounted in Fluorescent Mounting Medium (DAKO) containing 4′,6-diamidino-2-phenylindole (Molecular Probes) as a nuclear counterstain. Fluorescent staining was visualized using a Zeiss Axiolmager and digitally captured using a Zeiss high-resolution camera coupled to AxioVision image analysis software. Two to three nonoverlapping representative fields were captured at ×200 or ×400 magnification depending on histologic readout and quantified using the integrated morphometric analysis functions in Metamorph software (Universal Imaging Corp.). Apoptotic cells were detected using terminal deoxynucleotidyl transferase-mediated dUTP nick end labeling in situ cell death detection kit according to the manufacturer's instructions (Roche Diagnostics GmbH).
# CD31-positive tumor vessels, Ki67-positive proliferating cells, and pERK staining in each tumor section were identified and quantified using the integrated morphometric analysis functions in the ACIS automatic cellular imaging system (Clarient, Inc.) and reviewed by a blinded observer. Number of CD31-positive vessels were identified across 5 to 10 randomly chosen fields of equal size at ×100 magnification in viable tumor tissue and calculated as number of vessels per square millimeter for each tumor, averaged for each treatment group, and compared with vehicle-treated controls. Percentage Ki67-positive cells were calculated as the ratio between Ki67-positive cells divided by the total number of cells identified across 5 to 10 randomly chosen fields of equal size in viable tumor tissue. The results for each tumor and treatment group were averaged and compared with vehicle-treated controls. The level of pERK staining was determined as described above and calculated as the ratio of antibody staining divided by the total number of cells identified, averaged for each treatment group, and compared with vehicle-treated controls.
# Results are presented as mean±SD or SE as indicated for each graph or table. For IC50 comparison in the A431 cell viability experiment, two sample Student's t tests were applied to determine P values for each IC50 pair assuming that the random fluctuations of replicates around the dose-response curve are distributed [log]normally with the individual replicates used as the ‘sample size’ for the t test (nine point dose response done in triplicate). For statistical analysis of immunohistochemical results from in vivo studies, two-tailed Student's t test analysis and Bonferroni correction were done to identify significant differences compared with vehicle control group (multiple use of a single vehicle control group) with a cumulative minimal requirement of P<0.05.
# KDR = KDR (Homo sapiens, UniProt P35968); test: Mechanism of action study / Ki determination; type: biochemical; parameters: residues D807-V1356 of human KDR, Proqinase; purchased Proqinase
# Description: (§1) Enzymatic activity was measured by standard methods after dilution of the enzyme-inhibitor complex.
# Glutamate, Kainate Site = test: NovaScreen assay; type: binding
# Lck = molecular target: T1, Lck (Homo sapiens, UniProt P06239); test: Chemiluminescent kinase assay; type: biochemical
# T1 construct: Human, Q225-; mM MgCl2, 3 mM MnCl2, 1; P510, N-GST/C-; GST (N); EF (C)
# Description: (§2) A Luciferase-coupled chemiluminescence assay was used to measure EGFR and KDR (VEGFR2) activity. Kinase activity was measured as the percentage of ATP consumed following the kinase reaction using luciferase-luciferin-coupled chemiluminescence. Reactions were conducted in 384-well white, medium-binding microtiter plates (Greiner). […] The reaction mixture was incubated at room temperature for 4 h. Following the kinase reaction, a 20 μL aliquot of Kinase Glo (Promega) was added and luminescence signal was measured using a Victor2 plate reader (Perkin-Elmer). Total ATP consumption was limited to 50%.
# (§3) Further screening was performed using the biochemical assay methods of Example 2. Additional description of the components and concentrations are summarized in Table 8, Table 9, and Table 10, below.
# c-Abl = molecular target: T2, c-Abl (Homo sapiens, UniProt P00519); test: Chemiluminescent kinase assay; type: biochemical
# T2 construct: Human, P118-; mM MgCl2, 3 mM MnCl2, 1; S553, N-GST,; GST (N); purchased ProQinase
# Description: as §2, §3
# c-Met = molecular target: T3, c-Met (Homo sapiens, UniProt P08581); test: Chemiluminescent kinase assay; type: biochemical
# T3 construct: Human, P948-; MgCl2, 0.02% Triton X-100,; S1343, N-GST-; GST (N); purchased ProQinase
# Description: as §2, §3
# ZAP-70 = molecular target: T4, ZAP-70 (Homo sapiens, UniProt P43403); test: Chemiluminescent kinase assay; type: biochemical
# T4 construct: purchased MBL
# Description: as §2, §3
# Serotonin Transporter = molecular target: T5, Serotonin Transporter (Homo sapiens, UniProt P31645); test: NovaScreen assay; type: binding
# T5 construct: NovaScreen
# EGFR L858R (pCMV/Lx-1) = EGFR L858R (pCMV/Lx-1) (Homo sapiens, UniProt P00533, L858R); test: EGFR phosphorylation ELISA in transfected Lx-1 cells
# Description: Lx-1 cells were used because they lack background EGFR activity. A clone corresponding to the longest EGFR isoform (Genbank accession no. NM_005228.3/NP_005219.2 #21-176, Upstate Biotechnology) was used as a template to produce two mutant EGFR genes (coding for L858R and L861Q) by site-directed mutagenesis. The WT and the two sequence-verified mutants were transferred to a COOH-terminal Flag-tagged retroviral cytomegalovirus promoter-driven mammalian expression vector. The two Tet-On expression vectors, EGFR WT (Tet-On) and EGFRvIII (Tet-On), which were COOH-terminally Flag tagged, were generously provided by Dr. Abhijit Guha (University of Toronto, Toronto, Ontario, Canada).
# Transient transfections of Lx-1 cells were done using Lipofectamine 2000 (Invitrogen) according to the manufacturer's protocol. For transfections of the WT, L858R, and L861Q constructs, 1 μg plasmid DNA was used for each transfection (each well of a 12-well plate). […]
# For the EGFR phosphorylation ELISA, Reacti-Bind streptavidin-coated plates (Pierce) were coated with 2 μg/mL biotin-conjugated anti-Flag antibody (Sigma). […] Horseradish peroxidase activity was determined by reading the plates in a Victor2 plate reader following addition of the ELISA Femto substrate.
# [1] = tested on: Corticotropin Releasing Factor, Non-selective; test: NovaScreen assay; type: binding
# Bradykinin, BK2 = molecular target: T6, Bradykinin, BK2 (Homo sapiens, UniProt P30411); test: NovaScreen assay; type: binding; conditions: read-out: Inhibition, 10 μM XL-647
# T6 construct: NovaScreen
# ErbB2 = ErbB2 (Homo sapiens, UniProt P04626); test: Mechanism of action study / Ki determination; type: biochemical; parameters: residues Q679-V1255 of human ErbB2, Proqinase; purchased Proqinase
# Description: as §1
# [2] = molecular target: T7, Thyrotropin Releasing Hormone, TRH (Homo sapiens, UniProt P34981); test: NovaScreen assay; type: binding; conditions: read-out: Inhibition, 10 μM XL-647
# T7 construct: NovaScreen
# T7 sequence (P34981 whole entry): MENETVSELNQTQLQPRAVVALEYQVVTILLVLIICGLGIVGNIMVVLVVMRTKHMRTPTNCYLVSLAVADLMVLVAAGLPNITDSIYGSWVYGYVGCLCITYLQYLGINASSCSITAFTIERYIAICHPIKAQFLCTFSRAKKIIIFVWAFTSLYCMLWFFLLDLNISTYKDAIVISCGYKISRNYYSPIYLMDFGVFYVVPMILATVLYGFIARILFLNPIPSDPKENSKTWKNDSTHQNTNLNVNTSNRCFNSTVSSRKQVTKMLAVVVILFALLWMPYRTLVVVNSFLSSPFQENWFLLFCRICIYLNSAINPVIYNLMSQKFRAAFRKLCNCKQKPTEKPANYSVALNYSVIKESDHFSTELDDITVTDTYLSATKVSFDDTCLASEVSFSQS
# ErbB2, sequence (P04626 679-1255): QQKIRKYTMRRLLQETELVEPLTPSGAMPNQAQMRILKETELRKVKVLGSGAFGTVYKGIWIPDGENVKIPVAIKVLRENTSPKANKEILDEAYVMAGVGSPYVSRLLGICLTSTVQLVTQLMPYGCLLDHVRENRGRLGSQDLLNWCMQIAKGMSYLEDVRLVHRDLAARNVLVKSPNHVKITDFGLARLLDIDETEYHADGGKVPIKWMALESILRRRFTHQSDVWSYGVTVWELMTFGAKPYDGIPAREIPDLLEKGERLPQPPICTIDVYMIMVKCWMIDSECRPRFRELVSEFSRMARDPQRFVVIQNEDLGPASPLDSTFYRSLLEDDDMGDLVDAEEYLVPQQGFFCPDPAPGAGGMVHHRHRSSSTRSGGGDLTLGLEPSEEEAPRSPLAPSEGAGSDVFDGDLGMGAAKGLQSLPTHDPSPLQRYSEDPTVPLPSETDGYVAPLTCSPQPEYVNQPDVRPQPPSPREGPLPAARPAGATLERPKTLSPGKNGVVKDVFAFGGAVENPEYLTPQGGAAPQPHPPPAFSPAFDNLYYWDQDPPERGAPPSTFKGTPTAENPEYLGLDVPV
# KDR, sequence (P35968 807-1356): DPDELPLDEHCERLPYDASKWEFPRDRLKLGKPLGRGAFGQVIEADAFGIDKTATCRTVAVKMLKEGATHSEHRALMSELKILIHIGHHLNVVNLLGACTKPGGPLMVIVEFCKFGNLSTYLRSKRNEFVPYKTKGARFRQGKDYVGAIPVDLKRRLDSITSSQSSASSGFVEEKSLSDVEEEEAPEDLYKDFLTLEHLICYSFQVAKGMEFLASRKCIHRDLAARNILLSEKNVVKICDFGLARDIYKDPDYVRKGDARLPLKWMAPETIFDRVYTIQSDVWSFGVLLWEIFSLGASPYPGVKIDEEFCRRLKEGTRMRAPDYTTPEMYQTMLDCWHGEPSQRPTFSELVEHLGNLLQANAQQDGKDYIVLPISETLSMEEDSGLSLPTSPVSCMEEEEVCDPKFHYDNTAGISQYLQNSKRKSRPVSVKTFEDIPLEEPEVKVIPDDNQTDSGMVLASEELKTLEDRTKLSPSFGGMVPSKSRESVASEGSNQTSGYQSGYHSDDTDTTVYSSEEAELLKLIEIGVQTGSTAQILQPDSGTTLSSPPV
# T5 sequence (P31645 whole entry): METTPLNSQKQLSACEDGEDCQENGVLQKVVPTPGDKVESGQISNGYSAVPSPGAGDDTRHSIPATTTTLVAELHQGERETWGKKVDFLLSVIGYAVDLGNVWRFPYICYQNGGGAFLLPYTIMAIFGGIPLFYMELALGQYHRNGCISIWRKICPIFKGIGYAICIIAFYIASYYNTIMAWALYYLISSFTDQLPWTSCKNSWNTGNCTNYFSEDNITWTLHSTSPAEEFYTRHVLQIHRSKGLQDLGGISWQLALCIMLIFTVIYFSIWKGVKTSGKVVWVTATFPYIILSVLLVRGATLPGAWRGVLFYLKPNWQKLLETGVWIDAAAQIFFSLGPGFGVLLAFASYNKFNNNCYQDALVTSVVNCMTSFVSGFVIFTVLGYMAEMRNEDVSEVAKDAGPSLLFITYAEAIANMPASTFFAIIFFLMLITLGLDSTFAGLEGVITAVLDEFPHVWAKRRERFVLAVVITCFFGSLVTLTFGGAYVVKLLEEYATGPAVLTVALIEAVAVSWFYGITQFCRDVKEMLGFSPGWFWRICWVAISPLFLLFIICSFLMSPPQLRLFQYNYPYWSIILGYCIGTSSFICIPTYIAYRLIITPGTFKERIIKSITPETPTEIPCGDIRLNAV
# T2 sequence (P00519 118-553): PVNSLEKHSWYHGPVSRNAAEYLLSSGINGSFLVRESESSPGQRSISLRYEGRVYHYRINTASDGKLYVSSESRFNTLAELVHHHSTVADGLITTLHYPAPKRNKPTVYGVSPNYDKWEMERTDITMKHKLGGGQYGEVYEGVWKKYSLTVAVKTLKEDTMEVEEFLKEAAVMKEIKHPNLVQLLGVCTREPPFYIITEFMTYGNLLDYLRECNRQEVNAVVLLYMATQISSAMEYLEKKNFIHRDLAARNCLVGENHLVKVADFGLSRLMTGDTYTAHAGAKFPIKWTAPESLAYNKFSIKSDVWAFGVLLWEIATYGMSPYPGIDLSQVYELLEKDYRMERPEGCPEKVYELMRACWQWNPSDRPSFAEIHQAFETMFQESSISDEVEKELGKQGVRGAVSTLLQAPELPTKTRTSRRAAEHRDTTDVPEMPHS
# T3 sequence (P08581 956-1390 limits assumed): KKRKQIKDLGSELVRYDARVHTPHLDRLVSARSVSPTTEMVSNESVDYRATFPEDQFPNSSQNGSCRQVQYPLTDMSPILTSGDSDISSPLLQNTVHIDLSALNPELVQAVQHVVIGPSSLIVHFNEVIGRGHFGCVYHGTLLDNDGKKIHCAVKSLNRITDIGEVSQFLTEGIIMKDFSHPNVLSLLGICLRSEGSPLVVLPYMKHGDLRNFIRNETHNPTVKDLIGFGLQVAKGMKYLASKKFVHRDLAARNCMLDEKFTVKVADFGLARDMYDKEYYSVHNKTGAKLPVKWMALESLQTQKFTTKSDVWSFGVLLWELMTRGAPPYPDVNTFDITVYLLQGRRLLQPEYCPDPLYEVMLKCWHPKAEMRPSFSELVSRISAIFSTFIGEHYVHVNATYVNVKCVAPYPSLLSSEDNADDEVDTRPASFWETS
# T1 sequence (P06239 225-509 limits assumed): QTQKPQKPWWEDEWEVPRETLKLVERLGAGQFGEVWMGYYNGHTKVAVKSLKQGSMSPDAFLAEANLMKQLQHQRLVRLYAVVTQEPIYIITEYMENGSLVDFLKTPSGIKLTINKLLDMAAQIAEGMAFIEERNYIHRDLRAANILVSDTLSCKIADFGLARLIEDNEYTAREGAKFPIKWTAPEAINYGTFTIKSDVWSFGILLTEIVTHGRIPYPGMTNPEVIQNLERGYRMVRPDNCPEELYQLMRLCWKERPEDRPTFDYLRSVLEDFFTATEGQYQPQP
# EGFR L858R (pCMV/Lx-1), sequence (P00533 25-1210 L858R): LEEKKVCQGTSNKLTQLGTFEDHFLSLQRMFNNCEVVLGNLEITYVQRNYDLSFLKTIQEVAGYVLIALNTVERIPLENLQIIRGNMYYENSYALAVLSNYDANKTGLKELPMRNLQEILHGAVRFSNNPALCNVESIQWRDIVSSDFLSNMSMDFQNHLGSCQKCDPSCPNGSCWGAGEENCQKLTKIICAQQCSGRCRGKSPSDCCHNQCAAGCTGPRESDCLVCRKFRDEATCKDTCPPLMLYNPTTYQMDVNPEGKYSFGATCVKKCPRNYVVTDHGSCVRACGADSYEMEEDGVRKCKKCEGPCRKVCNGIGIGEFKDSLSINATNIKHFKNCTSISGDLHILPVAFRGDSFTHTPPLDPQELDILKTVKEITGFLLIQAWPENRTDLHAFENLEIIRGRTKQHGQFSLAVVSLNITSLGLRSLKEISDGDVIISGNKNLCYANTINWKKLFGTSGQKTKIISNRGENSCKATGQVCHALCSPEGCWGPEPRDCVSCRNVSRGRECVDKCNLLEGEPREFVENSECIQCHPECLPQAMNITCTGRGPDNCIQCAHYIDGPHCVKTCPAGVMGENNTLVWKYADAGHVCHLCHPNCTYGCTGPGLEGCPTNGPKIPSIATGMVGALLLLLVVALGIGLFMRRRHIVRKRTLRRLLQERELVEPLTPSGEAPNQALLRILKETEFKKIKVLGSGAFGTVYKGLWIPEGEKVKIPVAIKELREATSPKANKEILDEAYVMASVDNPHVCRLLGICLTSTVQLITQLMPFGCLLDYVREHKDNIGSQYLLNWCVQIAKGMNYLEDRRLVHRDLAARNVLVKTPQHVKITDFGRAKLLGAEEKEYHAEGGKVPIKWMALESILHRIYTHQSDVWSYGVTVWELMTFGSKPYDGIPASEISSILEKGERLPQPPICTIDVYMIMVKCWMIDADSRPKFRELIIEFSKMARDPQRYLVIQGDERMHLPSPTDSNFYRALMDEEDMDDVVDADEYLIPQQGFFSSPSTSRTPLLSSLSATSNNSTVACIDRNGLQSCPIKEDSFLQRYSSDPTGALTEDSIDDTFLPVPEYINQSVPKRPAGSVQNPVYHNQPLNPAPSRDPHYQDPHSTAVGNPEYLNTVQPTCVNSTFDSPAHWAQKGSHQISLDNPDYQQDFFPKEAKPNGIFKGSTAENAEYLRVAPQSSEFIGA
# T6 sequence (P30411 whole entry): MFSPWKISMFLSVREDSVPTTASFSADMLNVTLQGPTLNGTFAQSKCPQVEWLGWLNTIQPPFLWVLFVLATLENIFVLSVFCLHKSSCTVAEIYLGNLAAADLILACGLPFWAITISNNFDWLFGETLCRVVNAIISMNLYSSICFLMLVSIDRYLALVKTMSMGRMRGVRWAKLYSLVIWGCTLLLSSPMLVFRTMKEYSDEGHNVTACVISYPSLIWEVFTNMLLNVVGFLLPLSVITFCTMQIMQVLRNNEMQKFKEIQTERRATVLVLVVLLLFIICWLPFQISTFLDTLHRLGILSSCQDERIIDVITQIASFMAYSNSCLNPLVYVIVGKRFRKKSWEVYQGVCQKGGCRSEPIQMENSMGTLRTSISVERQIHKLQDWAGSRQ
smiles,measurement,setting,value
"COc1cc2c(Nc3ccc(Cl)c(Cl)c3F)ncnc2cc1OC[C@@H]1C[C@@H]2CN(C)C[C@@H]2C1 [XL-647, N-(3,4-dichloro-2-fluorophenyl)-7-({[(3aR,5r,6aS)-2-methyloctahydrocyclopenta[c]pyrrol-5-yl]methyl}oxy)-6-(methyloxy)quinazolin-4-amine]",CD31 Analysis % Reduction,H1975 xenografts; 10 mg/kg,30.0^b %
same,CD31 Analysis MVC,H1975 xenografts; 10 mg/kg,44
same,Ki67 Expression % Cells,H1975 xenografts; 10 mg/kg,27%
same,Ki67 Expression % Reduction,H1975 xenografts; 10 mg/kg,23.2^b %
same,TUNEL % Cells,H1975 xenografts; 10 mg/kg,6%
same,CD31 Analysis % Reduction,H1975 xenografts; 30 mg/kg,46.1^a %
same,CD31 Analysis MVC,H1975 xenografts; 30 mg/kg,34
same,Ki67 Expression % Cells,H1975 xenografts; 30 mg/kg,20%
same,Ki67 Expression % Reduction,H1975 xenografts; 30 mg/kg,41.9^a %
same,TUNEL % Cells,H1975 xenografts; 30 mg/kg,11%
same,CD31 Analysis % Reduction,H1975 xenografts; 100 mg/kg,69.6^a %
same,CD31 Analysis MVC,H1975 xenografts; 100 mg/kg,19
same,Ki67 Expression % Cells,H1975 xenografts; 100 mg/kg,8.9%
same,Ki67 Expression % Reduction,H1975 xenografts; 100 mg/kg,74.6^a %
same,TUNEL % Cells,H1975 xenografts; 100 mg/kg,15%
same,ATP-Competitive,KDR,Yes
same,Ki,KDR,0.6 nM
same,Reversible,KDR,Yes
same,"Inhibition, 10 μM XL-647","Glutamate, Kainate Site",0.89%
same,IC50,Lck,31 ± 0.3 nM
same,IC50,c-Abl,337 ± 3.6 nM
same,IC50,c-Met,332 ± 50.7 nM
same,IC50,ZAP-70,7.81 ± 0.655 µM
same,IC50,Serotonin Transporter,188 nM
same,inhibition at 10 µM,"Serotonin Transporter; read-out: Inhibition, 10 μM XL-647",101%
same,IC50,EGFR L858R (pCMV/Lx-1),5 nM
same,"Inhibition, 10 μM XL-647",[1],32.32%
same,inhibition at 10 µM,"Bradykinin, BK2",48.8%
same,ATP-Competitive,ErbB2,Yes
same,Ki,ErbB2,3 nM
same,Reversible,ErbB2,Yes
same,inhibition at 10 µM,[2],4.59%
